Test results taken from US10588902B2, “Camptothecin derivatives as anti-HIV agents and methods of identifying agents that disrupt Vif self-association” (OyaGen, Inc., priority 2013, dated 2020).
Values after ≈ are worked out from the molar mass of the structure shown.

Experiments:
[1] = PubChem BioAssays; cited from earlier work
Topo1 = biological target: T1, Topo1 (Homo sapiens, UniProt P11387); experiment: in vitro Topo1 drug screening assay (Topogen); assay type: biochemical; settings: increasing amounts, compared to the 0 chem control
T1 construct: purchased Topogen
T1 sequence (P11387 1-765): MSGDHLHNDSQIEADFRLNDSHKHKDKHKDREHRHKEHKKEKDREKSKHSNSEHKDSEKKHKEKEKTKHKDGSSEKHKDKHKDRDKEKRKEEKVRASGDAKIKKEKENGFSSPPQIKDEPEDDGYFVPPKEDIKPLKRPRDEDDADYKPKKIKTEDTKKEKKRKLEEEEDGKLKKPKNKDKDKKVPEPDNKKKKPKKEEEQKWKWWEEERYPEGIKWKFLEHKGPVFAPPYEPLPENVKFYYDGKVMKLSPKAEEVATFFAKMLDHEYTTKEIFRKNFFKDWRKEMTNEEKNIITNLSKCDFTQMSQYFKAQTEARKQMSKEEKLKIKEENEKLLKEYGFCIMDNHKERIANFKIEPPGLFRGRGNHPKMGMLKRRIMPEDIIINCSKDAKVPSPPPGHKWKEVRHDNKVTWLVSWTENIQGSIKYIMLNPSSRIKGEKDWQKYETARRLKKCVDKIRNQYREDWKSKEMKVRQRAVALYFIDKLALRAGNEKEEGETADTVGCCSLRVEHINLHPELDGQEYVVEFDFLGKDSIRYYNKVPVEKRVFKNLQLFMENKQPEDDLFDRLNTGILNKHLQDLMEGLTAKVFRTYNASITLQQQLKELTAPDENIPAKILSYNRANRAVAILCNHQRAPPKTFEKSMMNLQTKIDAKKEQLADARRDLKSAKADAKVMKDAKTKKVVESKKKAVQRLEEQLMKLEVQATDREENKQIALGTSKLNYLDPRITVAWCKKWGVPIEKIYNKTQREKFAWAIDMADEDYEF

A3.01 cells = experiment: cell cycle test (propidium iodide, flow cytometry); assay type: cell-based; settings: for G2 block: CPT 0.2 μM, OYA002-16 0.2 and 0.4 μM
Procedure: FIGS. 9A and 9B illustrate results of an in vitro drug screening assay for toxicity of the OYA002-16 small molecule of the present invention. […] After 24 hours of compound treatment cells were fixed in methanol and treated with propidium iodide (PI) to stain the cellular DNA in A3.01 cells (a CEM derived T-cell line). Flow cytometry of the cells can detect if the cells are in the G1 S or G2 phase of mitosis based on amount of PI staining in each cell.

[2] = system: Vif-dependent A3G degradation; experiment: in-cell secondary screen for Vif-dependent A3G degradation (A3G-mCherry 293T cells); assay type: cell-based; settings: compared to +Vif (0%) and −Vif (100%) controls
Procedure: FIG. 10 illustrates in-cell secondary screen fro Vif-dependent A3G degradation. […] 50 ng of Vif was transiently transfected into the cells in 384-well format with Turbofect. 4 hours after transfection the chemistries were added to cells. 24 hours after chemistries were added the mCherry signal was read on a Biotek Synergy 4 plate reader. The signal from plated cells not transfected with Vif was averaged and set at 100% (left image), and cells transfected with Vif and treated with DMSO only were averaged and set at 0% (right image). A chemistry that inhibits Vif's ability to chaperone A3G to the proteasomal degradation pathway would result in an increased mCherry signal compared to the DMSO only control, and any signal that is much higher than the no-Vif positive control is likely to be due to autofluorescence from the chemistry itself.
The primary screen is represented as a change in RFU over the quenched control (ARFU). The secondary screen is compared to the +Vif (0%) and −Vif (100%) controls as described in FIG. 10.

[3] = stability test after 3 freeze/thaw cycles; assay type: physicochemical
Procedure: For each compound, an aliquot of the stock solution (250 uM in DMSO) was frozen for 24 hrs at −80° C. and thawed for 1 hr, 3 times, then diluted 10 times in 40% CAN and analyzed by HPLC.
(§1) HPLC conditions used for the experiments were as follows: Column: Luna C-18, 150×4.6 from Phenomenex. Eluent: 42% aqueous CAN with 0.75 mM NH4OAc, pH=6.8. Detection: UV at 254 nm. Temperature: 35° C. Flow: 1.5 mL/min. Injection: 20 uL (solubility, freeze/thaw) or 200 uL (stability).

A3G in viral particles = experiment: A3G viral particle content (western blot of purified viral particles); assay type: cell-based; settings: p24 normalized
From the text: Perform ‘hit’ validation assays to confirm that small molecules selected by the primary and secondary screens have antiviral activity through their antagonism of Vif self-association. Antiviral activity will be validated for each compound with a luciferase viral infectivity reporter assay using infected TZM-bl cells in microtiter plate format. Each compound's ability to inhibit Vif-Vif interaction will be evaluated by co-immunoprecipitation.
Another way to observe target specificity is by looking at the amount of A3G that is encapsulated into the viral particle. Since Vif blocks A3G from getting into the virus, more A3G should be present in viral particles isolated from cells dosed with a small molecule that disables Vif's function.

solubility in Lac-Buffer = assay type: physicochemical; settings: 37 °C, thermodynamic from solid
Procedure: Solubility: 0.7 mg of OYA002-16 was suspended in 100.8 μl Lac-Buffer pH 4.5 or pH 7.4, vortexed for 10 min and warmed-up at 37° C. for 10 min, sonicated for 5 min and vortexed again for 10 min and centrifuged for 10 min. Supernatant was directly injected for concentration measurement. pH 7.4 Solubility: 65-72 μM by UV, 58-63 μM by CLND. pH 4.5 Solubility: 74-92 μM by UV, 74 μM by CLND.
as §1

pseudotyped HIV = experiment: single round infectivity assay with pseudotyped HIV (TZM-bl luciferase reporter cells); assay type: cell-based; settings: up to 33.3 μM, +/−Vif, +/−A3G
Procedure: The antiviral activity of the hits in a single round infection with psuedotyped HIV was assessed. […] The wildtype HIV proviral vector codes for all HIV genes except nef (replaced with EGFP) and env. The delta Vif proviral vector is identical to wildtype except that it contains a stop codon early within the vif gene. […] Alternatively, in the absence of A3G, both wild type and Delta Vif viruses should have good infectivity.
Transfecting the coat protein on a separate vector, allows for only a single round of infection. […] Viral load was normalized with a p24 ELISA Kit (Zeptometrix, Buffalo, N.Y.). Equal viral loads were then added in triplicate to TZM-bl reporter cells that express luciferase from the HIV-LTR promoter. 48 hours after infection luciferase levels were assessed with Steady-Glo reagent (Promega).
The antiviral activity of the hits in a single-round infection with pseudotyped HIV were conducted using HEK293T producer cells +/−A3G and viruses that are +/−Vif. […]
The infections utilized TZM-bl reporter cells that contain stably integrated luciferase that is driven by the HIV-LTR promoter, therefore luciferase is expressed upon successful HIV infection. […] Luminescence was measured as a quantitative metric for changes in infectivity with each compound as compared to controls, in which relative luminescence units (RLU) with no compounds are set to 100%.

HepG2 cells = experiment: high content imaging toxicity study, HepG2; assay type: cell-based
Procedure: (§2) All cells are plated on 384-well collagen-coated, tissue culture-treated black walled clear bottomed polystyrene plates. Rat hepatocytes are seeded and dosed on the day they are harvested. Dosing takes place after attachment to the plate. They are treated with test compound at a 10 point dose range of concentrations and incubated for 24 and 48 hrs. HepG2 cells are seeded on the day prior to dosing and are treated with test compound at a 10 point dose range of concentrations and incubated for 24 and 72 hours. At the end of the incubation period, the cells are loaded with the relevant dye/antibody for each cell health marker. The plates are then scanned using an automated High Content Imager, Array Scan® VTI (Thermo Fisher Cellomics). The GSH, ROS, and 5 day toxicity assays were run at 1 time point, 18 hours post-dosing for GSH, 4 hr post-dose for ROS, and 5 days post-drug treatment for the 5 day assay.

Vif:Vif complex = biological target: T2, Vif:Vif complex (Human immunodeficiency virus type 1 group M subtype B, UniProt P12504); assay type: cell-based, HIV; settings: change in RFU over the quenched control
T2 construct: expressed in transfected cells; host or cells: HEK 293T cells, transient co-transfection of two plasmids
From the text: EGFP-V5-Vif (the fluorescence donor) and Vif-HA-REACh2 (the acceptor and non-fluorescent YFP variant that quenches EGFP fluorescence) will be co-expressed in HEK 293T cells. Compounds that dissociate Vif multimers will induce EGFP fluorescence making this a positive screen for small molecules that disrupt Vif self-association.
EGFP is a FRET donor and REACh2 (Resonance Energy Accepting Chromoprotein 2) is a non-fluorescent FRET acceptor (54). The non-fluorescent REACh2 is able to quench EGFP signal in a distance-dependent manner when they are linked to interacting domains. However, if there is no interaction, EGFP and REACh2 are not proximal and quenching will not occur. […]
EGFP-V5-Vif alone has a strong baseline fluorescence. […]
Experimentals relating to adapting the quenched FRET assay to 96-well and 384-well format are set forth below: • Description of reagents and readouts: We are currently capable of screening small libraries in 96-well format, and have optimized transfections for 384-well format. […] REACh2 is a non-fluorescent YFP variant that quenches EGFP through FRET, so in the default state Vif dimerizes and the EGFP signal is quenched, a compound that affects the interaction will cause an increase in fluorescence due to lack of FRET from interacting proteins (aka “releasing of the quench”). Our read out is fluorescence at GFP's excitation and emission in a PE Victor 3 plate reader. […]

885 bp region of Pol = experiment: Next Gen Sequencing for A3G signature mutation profiles; assay type: cell-based, HIV
From the text: FIG. 14 is an illustration relating to a Next Gen Sequencing for A3G signature mutation profiles. Next Gen Sequencing with the Ion Torrent platform was used to sequence over 27 million bases for each sample. An 885 bp region of Pol was nested PCR amplified from genomic DNA isolated from TZM-bl cells infected in the previous Figures with −Vif virus+A3G (Positive Control) and +Vif virus+A3G & OYA002-16 (OYA002-16) and −Vif−A3G & OYA002-16 (Negative Control). There were 60 possible A3G “GG” signature mutation sites (A3G mediated single-stranded DNA mutations occur preferentially at the 3′ C of CC dinucleotide pairs) in the region sequenced. 34 sites were mutated at a rate of 15- to 339-fold over the background mutation rate for the Positive Control. 34 sites were mutated at a rate of 48 to 200-fold over background for the OYA002-16 sample. 21 sites overlapped between the two.

[4] = stability test in PBS buffer; assay type: physicochemical; settings: after 48 h in PBS
Procedure: For each compound, a 0.250 uM stock solution in DMSO was prepared and sonicated until clear. Then, for each stability test, the cpd was formulated by adding 10 uL of the stock solution to 990 uL of PBS buffer, pH 7.0 and then a 200 uL aliquot was incubated 37° C. for 24 or 48 hrs.
as §1

[5] = system: rat hepatocytes and HepG2 cells; experiment: high content imaging toxicity study, all tested cell types; assay type: cell-based
Procedure: as §2

T2 sequence (P12504 whole entry, one chain of several): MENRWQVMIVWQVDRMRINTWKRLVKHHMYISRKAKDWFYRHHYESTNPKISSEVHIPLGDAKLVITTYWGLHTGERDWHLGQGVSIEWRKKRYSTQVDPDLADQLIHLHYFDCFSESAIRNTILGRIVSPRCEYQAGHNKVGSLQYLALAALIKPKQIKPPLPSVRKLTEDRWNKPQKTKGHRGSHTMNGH

CC[C@@]1(O)C(=O)OCc2c1cc1n(c2=O)Cc2cc3c(NC(=O)CN)cccc3nc2-1 [9-glycineamido-20(S)-CPT]
active in Anti-Cancer Screens at NCI [1]: 37 of 76

CC[C@@]1(O)C(=O)OCc2c1cc1n(c2=O)Cc2cc3ccccc3nc2-1 [CPT, Camptothecin]
open nicked circles of plasmid DNA (Topo1 poisoning) (Topo1): trap plasmid DNA into open nicked circles | G2 block (A3.01 cells; 24 hours): strong G2 block

CC[C@@]1(O)C(=O)NCc2c1cc1n(c2=O)Cc2cc3ccccc3nc2-1 [OYA002-16, Lactam-CPT]
dose dependence in secondary screen (mCherry signal) [2]: dose dependence | stable [3]: 100% | A3G in viral particles (A3G in viral particles): increases A3G in viral particles | solubility at 35 min (solubility in Lac-Buffer; pH 4.5, aqueous buffer, pH 4.5, by CLND): 74 µM (≈ 25.7 µg/mL) | solubility at 35 min (solubility in Lac-Buffer; pH 4.5, aqueous buffer, pH 4.5, by UV): 74 to 92 µM (≈ 25.7 to 32 µg/mL) | solubility at 35 min (solubility in Lac-Buffer; pH 7.4, aqueous buffer, pH 7.4, by CLND): 58 to 63 µM (≈ 20.1 to 21.9 µg/mL) | solubility at 35 min (solubility in Lac-Buffer; pH 7.4, aqueous buffer, pH 7.4, by UV): 65 to 72 µM (≈ 22.6 to 25 µg/mL) | antiviral effect in single cycle HIV infectivity (pseudotyped HIV): dose dependent antiviral effect only when Vif and A3G were expressed | Cytostasis (HepG2 cells): largest effect | open nicked circles of plasmid DNA (Topo1 poisoning) (Topo1): no increase in open nicked circles | cell cycle effects (A3.01 cells): minimal cell cycle effects | cells in G2 (A3.01 cells; 0.2 and 0.4 μM, 24 hours, DMSO control 17%): 22% | G2 block (A3.01 cells; 24 hours): minimal amount of G2 block | dose dependence in primary screen (Vif:Vif complex): dose dependence | mutated sites overlapping with Positive Control (885 bp region of Pol): 21 sites | A3G signature mutation sites mutated (885 bp region of Pol; +Vif virus +A3G, 60 possible sites): 34 sites | stable [4]: 100% | Stress and Apoptosis assays [5]: minimal effect | Viability tests [5]: minimal effect

CC[C@@]1(O)C(=O)OCc2c1cc1n(c2=O)Cc2cc3c(CN(C)C)c(O)ccc3nc2-1 [Topotecan]
active in Anti-Cancer Screens at NCI [1]: active in most

CC[C@H]1C(=O)OCc2c1cc1n(c2=O)Cc2cc3ccccc3nc2-1 [deoxy-CPT]
active in Anti-Cancer Screens at NCI [1]: 4 of 68
